Square brackets hold non-standard residues; d marks the D form. Ends that are not written are not given here. Cit = NC(=O)NCCC[C@H](N)C(=O)O
Tests used:
[1] = tested on: B cell-mediated IgG secretion; experiment: ELISpot IgG assay; type: cell-based; details: compared to media
Source text: (§1) Using ELISpot assays, we tested the unmodified and citrullinated forms of three pairs of synthesized ENO1 peptides predicted as having high MHC-II binding affinity and assessed B cell-mediated IgG and T cell-mediated IFNγ secretion (Table 9).

[2] = tested on: T cell-mediated IFNγ secretion; experiment: ELISpot IFNγ assay; type: cell-based; details: compared to media
Source text: as §1

| Substance | B cell-mediated IgG response (ELISpot) [1] | T cell-mediated IFNγ secretion (ELISpot) [2] | T cell-mediated IFNγ secretion (ELISpot) ([2]; listed as citrullinated peptide 1) |
| --- | --- | --- | --- |
| AMQEFMILPVGASSFR*EAMR*GA (AMQEFMILPVGASSF[Cit]EAM[Cit]GA) [citrullinated peptide-2, citrullinated synthesized ENO1 peptide, R16(Cit.), R20(Cit.)] | elicited a potent IgG response |  |  |
| R*AAVPSGASTGIYEALELR*DNDKTR* (RAAVPSGASTGIYEALELRDNDKTR; citrullinated arginines; MOD_RES (1)..(1) Citrullinated Arginine; MOD_RES (19)..(19) Citrullinated Arginine; MOD_RES (25)..(25) Citrullinated Arginine) [citrullinated peptide-1, citrullinated synthesized ENO1 peptide, position 32-56] | elicited a potent IgG response | modest increase in IFNg secretion | higher amount of INFγ response |
